From patent US20160278375A1, “BISCATIONIC AND TRISCATIONIC AMPHIPHILES AS ANTIMICROBIAL AGENTS” (Temple University of the Commonwealth System of Higher …, priority 2013, published 2016)

How the values were obtained:
B. subtilis = details: pH 7.4; cited from earlier work
S. aureus = details: pH 7.4; cited from earlier work
[1] = system: S. aureus, E. faecalis, E. coli and P. aeruginosa; experiment: MIC determination, statements across the bacteria tested; format: cell-based; details: S. aureus, E. faecalis, E. coli, P. aeruginosa; read-out: MIC values against all four bacterial species tested
Method: For the compounds above, respective minimum inhibitory concentration (MIC) values against the Gram-positive S. aureus, E. faecalis, Gram-negative E. coli and P. aeruginosa were determined, respectively, by standard methods. […] Cell viability was verified by serial dilution and plating on MH agar. Both aqueous and fresh media positive controls were performed for each trial. Overnight bacterial cultures of Staphylococcus aureus (SH1000), Enterococcus faecalis (OG1RF), Escherichia coli (MC4100), and Pseudomonas aeruginosa (PAO1-WT) were grown in Mueller-Hinton broth at 37° C., with all but E. faecalis under shaking Overnight cultures were diluted to approximately 10^6 cfu/mL as determined by OD measurement at 640 nm and plating on MH agar.
Each compound was serially diluted two-fold with water from 1 mM down to 1 μM yielding twelve dilutions per compound. In triplicate, 100 µL of each dilution were pipetted into the appropriate well of a 96-well microtiter plate, and then […] of overnight bacterial culture diluted to ca. 10^6 cfu/mL were inoculated into each well. Microtiter plates were incubated at 37° C. for 72 hours. Up to seven compounds were tested against one bacterial species at twelve decreasing concentrations per 96-well plate.

[2] = system: pre-established Staph aureus biofilms; experiment: visual disruption of pre-established biofilms; format: cell-based; details: disperses biofilms
Method: Compound (12,2,0,2,12) causes a visual disruption of pre-established Staph aureus biofilms at 25 μM (micromolar). Thus it at least disperses biofilms at 25 μM.

N=C(N=C(N)N)Nc1cccc(NC(=N)N=C(N)N)c1 [Compound 11a]
MBIC B. subtilis (B. subtilis): 30 µM | MBIC S. aureus (S. aureus): 300 µM

N=C(N=C(N)N)Nc1cccc(NC(=N)N=C(N)N)c1 [Compound 11b]
MBIC B. subtilis (B. subtilis): 7 ± 3 µM | MBIC S. aureus (S. aureus): 750 ± 250 µM

CCCCCCCCCCCC[N+](C)(C)CCN(C)CC[N+](C)(C)CCCCCCCCCCCC.[Br-].[Br-] [Compound 12, 2, 0, 2, 12]
MIC [1]: ≤ 4 µM | concentration causing visual disruption of pre-established biofilms [2]: 25 µM
